The molecules below were run against T1, human RXFP1 (Homo sapiens, UniProt Q9HBX9) (assay: RXFP1 cyclic adenosine monophosphate (cAMP) assay, hRXFP1 HEK293). Details: HEK293 cells stably expressing human RXFP1; 30 min at room temperature; HTRF cAMP.
T1 construct: expressed in transfected cells
T1 sequence (Q9HBX9 1-757): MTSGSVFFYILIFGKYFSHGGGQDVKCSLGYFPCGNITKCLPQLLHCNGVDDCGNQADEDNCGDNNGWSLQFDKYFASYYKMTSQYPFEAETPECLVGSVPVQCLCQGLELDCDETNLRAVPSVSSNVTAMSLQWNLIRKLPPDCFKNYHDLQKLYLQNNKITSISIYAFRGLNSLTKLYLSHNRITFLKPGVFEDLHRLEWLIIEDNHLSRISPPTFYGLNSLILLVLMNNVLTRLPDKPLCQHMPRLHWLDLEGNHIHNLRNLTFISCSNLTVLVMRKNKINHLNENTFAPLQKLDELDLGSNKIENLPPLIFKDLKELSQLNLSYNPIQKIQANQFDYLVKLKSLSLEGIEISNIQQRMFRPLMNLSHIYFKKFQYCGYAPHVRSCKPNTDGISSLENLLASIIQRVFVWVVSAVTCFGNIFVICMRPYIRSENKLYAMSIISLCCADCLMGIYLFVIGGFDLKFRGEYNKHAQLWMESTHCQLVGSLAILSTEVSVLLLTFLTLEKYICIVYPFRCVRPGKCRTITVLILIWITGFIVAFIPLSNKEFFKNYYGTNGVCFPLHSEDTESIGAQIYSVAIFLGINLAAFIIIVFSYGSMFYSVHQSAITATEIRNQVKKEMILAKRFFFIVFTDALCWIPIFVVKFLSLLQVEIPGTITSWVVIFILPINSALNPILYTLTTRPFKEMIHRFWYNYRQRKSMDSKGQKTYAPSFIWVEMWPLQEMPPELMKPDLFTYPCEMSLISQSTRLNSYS
Assay type: cell-based
Description: RXFP1 Cyclic Adenosine Monophosphate (cAMP) Assays. Human embryonic kidney cells 293 (HEK293) cells and HEK293 cells stably expressing human RXFP1, were cultured in MEM medium supplemented with 10% qualified FBS, and 300 μg/ml hygromycin (Life Technologies). Cells were dissociated and suspended in assay buffer. The assay buffer was HBSS buffer (with calcium and magnesium) containing 20 mM HEPES, 0.05% BSA, and 0.5 mM IBMX. Cells (3000 cells per well, except 1500 cell per well for HEK293 cells stably expressing human RXFP1) were added to 384-well Proxiplates (Perkin-Elmer). Cells were immediately treated with test compounds in DMSO (2% final) at final concentrations in the range of 0.010 nM to 50 μM. Cells were incubated for 30 min at room temperature. The level of intracellular cAMP was determined using the HTRF HiRange cAMP assay reagent kit (Cisbio) according to manufacturer's instructions. Solutions of cryptate conjugated anti-cAMP and d2 fluorophore-labelled cAMP were made in a supplied lysis buffer separately. Upon completion of the reaction, the cells were lysed with equal volume of the d2-cAMP solution and anti-cAMP solution. After a 1 h room temperature incubation, time-resolved fluorescence intensity was measured using the Envision (Perkin-Elmer) at 400 nm excitation and dual emission at 590 nm and 665 nm. A calibration curve was constructed with an external cAMP standard at concentrations ranging from 2.7 μM to 0.1 μM by plotting the fluorescent intensity ratio from 665 nm emission to the intensity from the 590 nm emission against cAMP concentrations. The potency and activity of a compound to […] cAMP production was then determined by fitting to a 4-parametric logistic equation from a plot of cAMP level versus compound concentrations.
The examples disclosed below were tested in the human RXFP1 (hRXFP) HEK293 cAMP assay described above and found to have agonist activity. Tables 1-3, lists EC50 values in the hRXFP1 HEK293 cAMP assay measured for the examples.
Table A lists EC50 values in the hRXFP1 HEK293 cAMP assay measured for the examples.

Row | Structure (SMILES) | EC50 [nM]
1 | COc1ccc(-c2cc([C@H](OC(=O)NC3CCC3)C(F)(F)F)ccc2F)cc1C(=O)Nc1cc2sc(C)nc2cc1C(=O)Nc1ccc(F)c(C(F)(F)F)c1 [Example 16, (S)-2,2,2-trifluoro-1-(6-fluoro-3′-((5-((4-fluoro-3-(trifluorometh-yl)phenyl)car-bamoyl)-2-methylbenzo [d]thiazol-6-yl)carbamoyl)-4′-methoxy-[1,1′-biphen-yl]-3-ylethylcyclobutylcar-bamate] | 46
2 | COc1ccc(-c2cc(C(=O)O)ccc2F)cc1C(=O)Nc1cc2c(cc1C(=O)Nc1ccc(F)c(C(F)(F)F)c1)OC(F)(F)O2 [Example 57, 3′-((2,2-difluoro-6-((4-fluoro-3-(trifluoromethyl)phenyl)carbamoyl)benzo[d][1,3]dioxol-5-yl)carbamoyl)-6-fluoro-4′-methoxy-[1,1′-biphenyl]-3-carboxylic acid] | 125
3 | COc1ccc(C2=NOC3CC(O)CC23)cc1C(=O)Nc1cc2nc(C)sc2cc1C(=O)Nc1ccc(F)c(C(F)(F)F)c1 (single isomer, unassigned) [Example 8, N-(4-fluoro-3-(trifluorometh-yl)phenyl)-5-(5-(5-hydroxy-3a,5,6,6a-tetra-hydro-4H-cyclopenta[d]isoxazol-3-yl)-2-methoxy-benzamido)-2-methylbenzo [d]thiazole-6-carboxamide] | 40
4 | COc1ccc(C2=NOC3CC(O)CC23)cc1C(=O)Nc1cc2nc(C)sc2cc1C(=O)Nc1ccc(F)c(C(F)(F)F)c1 (single isomer, unassigned) [Example 23, N-(4-fluoro-3-(trifluorometh-yl)phenyl)-5-(5-(5-hydroxy-3a,5,6,6a-tetrahydro-4H-cyclopenta [d]isoxazol-3-yl)-2-methoxy-benzamido)-2-methylbenzo [d]thiazole-6-carboxamide] | 750
5 | COc1ccc(C2=NOC3CC(NC(=O)CO)CC23)cc1C(=O)Nc1cc2c(cc1C(=O)Nc1ccc(F)c(C(F)(F)F)c1)OC(F)(F)O2 (centres unmarked) [Example 51, 2,2-difluoro-N-(4-fluoro-3-(trifluoromethyl)phenyl)-6-(5-(5-(2-hydroxyacetamido)-3a,5,6,6a-tetrahydro-4H-cyclopenta[d]isoxazol-3-yl)-2-methoxybenzamido)benzo[d][1,3]dioxole-5-carboxamide] | 21
6 | COc1ccc(C(=O)N(C)CCS(C)(=O)=O)cc1C(=O)Nc1cc2c(cc1C(=O)Nc1ccc(F)c(C(F)(F)F)c1)OC(F)(F)O2 [Example 41] | 562
7 | COc1ccc(C2CCNC2)cc1C(=O)Nc1cc2c(cc1C(=O)Nc1ccc(F)c(C(F)(F)F)c1)OC(F)(F)O2 (single isomer, unassigned) [Example 54, 2,2-difluoro-N-(4-fluoro-3-(trifluoromethyl)phenyl)-6-(2-methoxy-5-(pyrrolidin-3-yl)benzamido)benzo[d] [1,3]dioxole-5-carboxamide] | 683
8 | COc1ccc(C2CC3(C2)CN(C(=O)C(C)(C)O)C3)cc1C(=O)Nc1cc2c(cc1C(=O)Nc1ccc(F)c(C(F)(F)F)c1)OC(F)(F)O2 [Example 97, 2,2-difluoro-N-(4-fluoro-3-(trifluoromethyl)phenyl)-6-(5-(2-(2-hydroxy-2-methylpropanoyl)-2-azaspiro[3.3]heptan-6-yl)-2-methoxybenzamido) benzo[d][1,3]dioxole-5-carboxamide] | 666
9 | COc1ccc(C2CCCN(C3COC3)CC2)cc1C(=O)Nc1cc2c(cc1C(=O)Nc1ccc(F)c(C(F)(F)F)c1)OC(F)(F)O2 (centres unmarked) [Example 95, 2,2-difluoro-N-(4-fluoro-3-(trifluoromethyl)phenyl)-6-(2-methoxy-5-(1-(oxetan-3-yl)azepan-4-yl)benzamido)benzo[d] [1,3]dioxole-5-carboxamide] | 862
10 | COc1ccc(-c2cc(C(NC(=O)C3CCOCC3)C(=O)O)ccc2F)cc1C(=O)Nc1cc2sc(C)nc2cc1C(=O)Nc1ccc(F)c(C(F)(F)F)c1 (single isomer, unassigned) [Example 30, 2-(6-fluoro-3′-((5-((4-fluoro-3-(trifluoromethyl)phenyl)carbamoyl)-2-methylbenzo[d]thiazol-6-yl)carbamoyl)-4′-methoxy-[1,1′-biphenyl]-3-yl)-2-(tetrahydro-2H-pyran-4-carboxamido)acetic acid] | 15
11 | CC(C)(C)NS(=O)(=O)c1ccc(F)c(-c2cc3c(c(C(=O)Nc4cc5c(cc4C(=O)Nc4ccc(F)c(C(F)(F)F)c4)OC(F)(F)O5)c2)OC(C)(C)C3)c1 [Example 101, 6-(5-(5-(N-(tert-butyl)sulfamoyl)-2-fluorophenyl)-2,2-dimethyl-2,3-dihydrobenzofuran-7-carboxamido)-2,2-difluoro-N-(4-fluoro-3-(trifluoromethyl)phenyl) benzo[d][1,3]dioxole-5-carboxamide] | 9.8
12 | COc1ccc(C2CCCN(CC(N)=O)CC2)cc1C(=O)Nc1cc2c(cc1C(=O)Nc1ccc(F)c(C(F)(F)F)c1)OC(F)(F)O2 (centres unmarked) [Example 96, 6-(5-(1-(2-amino-2-oxoethyl)azepan-4-yl)-2-methoxybenzamido)-2,2-difluoro-N-(4-fluoro-3-(trifluoromethyl)phenyl) benzo[d][1,3]dioxole-5-carboxamide] | 339
13 | COc1ccc(C2=NOC3CN(C(=O)CO)CC23)cc1C(=O)Nc1cc2c(cc1C(=O)Nc1ccc(F)c(C(F)(F)F)c1)OC(F)(F)O2 (centres unmarked) [Example 44, 2,2-difluoro-N-(4-fluoro-3-(trifluoromethyl)phenyl)-6-(5-(5-(2-hydroxyacetyl)-3a,5,6,6a-tetrahydro-4H-pyrrolo[3,4-d]isoxazol-3-yl)-2-methoxybenzamido)benzo[d][1,3]dioxole-5-carboxamide] | 16
14 | COCC1CC(c2ccc(OC)c(C(=O)Nc3cc4c(cc3C(=O)Nc3ccc(F)c(C(F)(F)F)c3)OC(F)(F)O4)c2)=NO1 (centres unmarked) [Example 83, 2,2-difluoro-N-(4-fluoro-3-(trifluoromethyl)phenyl)-6-(2-methoxy-5-(5-(methoxymethyl)-4,5-dihydroisoxazol-3-yl)benzamido)benzo[d] [1,3]dioxole-5-carboxamide] | 399
15 | COc1ccc(CN2CC3(C2)CS(=O)(=O)C3)cc1C(=O)Nc1cc2c(cc1C(=O)Nc1ccc(F)c(C(F)(F)F)c1)OC(F)(F)O2 [Example 88, 6-(5-((2,2-dioxido-2-thia-6-azaspiro[3.3]heptan-6-yl)methyl)-2-methoxybenzamido)-2,2-difluoro-N-(4-fluoro-3-(trifluoromethyl)phenyl) benzo[d][1,3]dioxole-5-carboxamide] | 274
16 | COc1ccc(C2=NOC3(CCN(CC(N)=O)CC3)C2)cc1C(=O)Nc1cc2c(cc1C(=O)Nc1ccc(F)c(C(F)(F)F)c1)OC(F)(F)O2 [Example 69, 6-(5-(8-(2-amino-2-oxoethyl)-1-oxa-2,8-diazaspiro[4.5]dec-2-en-3-yl)-2-methoxybenzamido)-2,2-difluoro-N-(4-fluoro-3-(trifluoromethyl)phenyl) benzo[d][1,3]dioxole-5-carboxamide] | 42
17 | COc1ccc(C2=NOC(C)(CO)C2)cc1C(=O)Nc1cc2c(cc1C(=O)Nc1ccc(F)c(C(F)(F)F)c1)OC(F)(F)O2 (single isomer, unassigned) [Example 71, 2,2-difluoro-N-(4-fluoro-3-(trifluoromethyl)phenyl)-6-(5-(5-(hydroxymethyl)-5-methyl-4,5-dihydroisoxazol-3-yl)-2-methoxybenzamido) benzo[d][1,3]dioxole-5-carboxamide] | 43

Reference: patent US20250066344A1 (BRISTOL-MYERS SQUIBB COMPANY, priority 2021, published 2025)
